Assay results: patent publication EP1178967B1, “QUINOLINE DERIVATIVES AS INHIBITORS OF MEK ENZYMES” (AstraZeneca AB, priority 1999, dated 2000)

Target: human p45MEK1 (GST-MEK) (Homo sapiens, UniProt Q02750)
Test: Assay for inhibitors of the MAP kinase pathway (coupled GST-MEK / GST-MAPK / MBP 33P incorporation assay)
Type: biochemical
Conditions: GST-MEK activated by c-raf, 60min at room temperature with inhibitor, MBP substrate
Protocol: To evaluate inhibitors of the MAPK pathway a coupled assay was carried out which measures phosphorylation of serine/threonine residues present in the substrate in the presence or absence of inhibitor. Recombinant glutathione S-transferase fusion protein containing human p45MEK1 (GST-MEK) was activated by c-raf (Sf9 insect cell lysate from triple baculoviral infection with c-raf/ras/lck) and used for the assay. Active GST-MEK was first used to activate a recombinant glutathione S-transferase fusion protein containing p44MAP kinase (GST-MAPK) in the presence of ATP and Mg^2+ for 60min at room temperature in the presence or absence of potential inhibitors. The activated GST-MAPK was then incubated with myelin basic protein (MBP) as substrate for 10min at room temperature in the presence of ATP, Mg^2+ and ^33P-ATP. The reaction was stopped by addition of 20% v/v phosphoric acid. Incorporation of ^33P into the myelin basic protein was determined by capture of the substrate on a filter mat, washing and counting using scintillation methods. The extent of inhibition was determined by comparison with untreated controls.
The final assay solution contained 10mM Tris, pH 7.5, 0.05mM EGTA, 8.33µM [γ^33P]ATP, 8.33mM Mg(OAc)2, 0.5mM sodium orthovanadate, 0.05%w/v BSA, 6.5ng GST-MEK, 1µg GST-MAPK and 16.5µg MBP in a reaction volume of 60µl.

Sequence of human p45MEK1 (GST-MEK) (Q02750 whole entry): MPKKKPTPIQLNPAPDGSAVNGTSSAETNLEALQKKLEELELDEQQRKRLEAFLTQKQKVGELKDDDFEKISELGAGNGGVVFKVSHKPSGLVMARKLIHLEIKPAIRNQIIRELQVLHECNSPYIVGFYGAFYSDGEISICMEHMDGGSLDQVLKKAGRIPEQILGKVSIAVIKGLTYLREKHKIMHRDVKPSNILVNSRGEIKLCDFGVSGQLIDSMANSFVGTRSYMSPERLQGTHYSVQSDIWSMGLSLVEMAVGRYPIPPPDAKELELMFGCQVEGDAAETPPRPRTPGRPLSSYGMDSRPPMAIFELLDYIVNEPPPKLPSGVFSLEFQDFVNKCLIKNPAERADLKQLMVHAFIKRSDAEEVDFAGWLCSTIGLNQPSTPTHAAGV

With `COc1cc2ncc(C#N)c(Nc3ccc(OCC4OCCO4)cc3)c2cc1OC` [Compound No 252] the IC50 was 0.15 µM.
